According to PubChem BioAssay AID330 (DTP/NCI, 2004):
Where “and” joins values, the source holds several entries; their conditions need not be identical. Equal values may be shown once. Toxic doses and inconclusive results are not listed.

Tested on: P388 leukemia ip, CD2F1 mice, survival T/C
Experiment: NCI In Vivo Anticancer Drug Screen. Data for tumor model P388 Leukemia (intraperitoneal) in CD2F1 (CDF1) mice
Settings: endpoint: median survival time, higher = longer survival
Procedure, shortened: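 Mice carrying the transplanted tumor received test compound or vehicle. Survival was recorded in each group, and the value is the treated-group measurement divided by that of the vehicle-treated control group.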

[1] = dose: 50.0 mg/kg/injection, schedule: Q01DX001 (ip), vehicle: Klucel (hydroxypropylcellulose) (HPC)
[2] = dose: 100.0 mg/kg/injection, schedule: Q01DX001 (ip), vehicle: Klucel (hydroxypropylcellulose) (HPC)
[3] = dose: 200.0 mg/kg/injection, schedule: Q01DX001 (ip), vehicle: Klucel (hydroxypropylcellulose) (HPC)
[4] = dose: 6.25 mg/kg/injection, schedule: Q01DX005 (ip), vehicle: Klucel (hydroxypropylcellulose) (HPC)
[5] = dose: 12.5 mg/kg/injection, schedule: Q01DX005 (ip), vehicle: Klucel (hydroxypropylcellulose) (HPC)
[6] = dose: 25.0 mg/kg/injection, schedule: Q01DX005 (ip), vehicle: Klucel (hydroxypropylcellulose) (HPC)
[7] = dose: 50.0 mg/kg/injection, schedule: Q01DX005 (ip), vehicle: Klucel (hydroxypropylcellulose) (HPC)
[8] = dose: 100.0 mg/kg/injection, schedule: Q01DX005 (ip), vehicle: Klucel (hydroxypropylcellulose) (HPC)
[9] = dose: 200.0 mg/kg/injection, schedule: Q01DX005 (ip), vehicle: Klucel (hydroxypropylcellulose) (HPC)
[10] = dose: 50.0 mg/kg/injection, schedule: Q01DX009 (ip), vehicle: saline with Tween-80
[11] = dose: 100.0 mg/kg/injection, schedule: Q01DX009 (ip), vehicle: saline with Tween-80
[12] = dose: 200.0 mg/kg/injection, schedule: Q01DX009 (ip), vehicle: saline with Tween-80
[13] = dose: 50.0 mg/kg/injection, schedule: Q01DX005 (ip), vehicle: saline with Tween-80
[14] = dose: 100.0 mg/kg/injection, schedule: Q01DX005 (ip), vehicle: saline with Tween-80
[15] = dose: 200.0 mg/kg/injection, schedule: Q01DX005 (ip), vehicle: saline with Tween-80

CC(C)(O)CCC(=O)[C@](C)(O)[C@H]1[C@H](O)C[C@@]2(C)[C@@H]3CC=C4[C@@H](C[C@@H](O)[C@@H](O)C4(C)C)[C@]3(C)C(=O)C[C@]12C
T/C (dose: 1.25 mg/kg/injection, schedule: Q01DX005 (ip), vehicle: saline with Tween-80): 100 % of control
T/C (dose: 2.5 mg/kg/injection, schedule: Q01DX005 (ip), vehicle: saline with Tween-80): 97 % of control
T/C (dose: 5.0 mg/kg/injection, schedule: Q01DX005 (ip), vehicle: saline with Tween-80): 95 % of control
T/C (dose: 10.0 mg/kg/injection, schedule: Q01DX005 (ip), vehicle: saline with Tween-80): 104 % of control

O=C([CH-]C(=O)C(F)(F)F)c1ccccc1.O=C([CH-]C(=O)C(F)(F)F)c1ccccc1.O=C([CH-]C(=O)C(F)(F)F)c1ccccc1.O=C([CH-]C(=O)C(F)(F)F)c1ccccc1.[Eu+3].c1ccncc1
T/C (dose: 50.0 mg/kg/injection, schedule: Q01DX009 (ip), vehicle: Klucel (hydroxypropylcellulose) (HPC)): 113 % of control
T/C (dose: 100.0 mg/kg/injection, schedule: Q01DX009 (ip), vehicle: Klucel (hydroxypropylcellulose) (HPC)): 104 % of control

O=C(CCl)c1ccc2c(c1)N(C(=O)COc1ccccc1)c1ccccc1S2
T/C [1]: 89 % of control
T/C [2]: 91 % of control
T/C [3]: 96 % of control

CCc1nnc2ccncn12
T/C (dose: 100.0 mg/kg/injection, schedule: Q04DX003 (ip), vehicle: saline with Tween-80): 97 % of control
T/C (dose: 200.0 mg/kg/injection, schedule: Q04DX003 (ip), vehicle: saline with Tween-80): 90 % of control
T/C (dose: 400.0 mg/kg/injection, schedule: Q04DX003 (ip), vehicle: saline with Tween-80): 102 % of control

CN=C(NCCc1ccccc1)c1ccc(NC(=O)c2ccc(C(=O)Nc3ccc(C(=NC)NCCc4ccccc4)cc3)cc2)cc1
T/C (dose: 3.12 mg/kg/injection, schedule: Q01DX005 (ip), vehicle: Klucel (hydroxypropylcellulose) (HPC)): 114 % of control
T/C [4]: 116 % of control and 122 % of control
T/C [5]: 154 % of control

CN(C)c1ccc(C(Nc2ccc(S(=O)(=O)Nc3ccccc3)cc2)c2ccc(N(C)C)cc2)cc1
T/C (dose: 100.0 mg/kg/injection, schedule: Q04DX003 (ip), vehicle: Klucel (hydroxypropylcellulose) (HPC)): 105 % of control
T/C (dose: 200.0 mg/kg/injection, schedule: Q04DX003 (ip), vehicle: Klucel (hydroxypropylcellulose) (HPC)): 110 % of control
T/C (dose: 400.0 mg/kg/injection, schedule: Q04DX003 (ip), vehicle: Klucel (hydroxypropylcellulose) (HPC)): 105 % of control

COC1=CCC2C(=O)C=CC(=O)C2C1 (stereo not drawn)
T/C [5]: 101 % of control
T/C [6]: 93 % of control
T/C [7]: 101 % of control
T/C [8]: 96 % of control
T/C [9]: 101 % of control

CCOP(=O)(O)SP(=O)(O)OCC.CCOP(=O)(O)SP(=O)(O)OCC.[Mn]
T/C (dose: 50.0 mg/kg/injection, schedule: Q04DX002 (ip), vehicle: saline): 117 % of control
T/C (dose: 100.0 mg/kg/injection, schedule: Q04DX002 (ip), vehicle: saline): 113 % of control and 117 % of control

O=[N+]([O-])c1ccc(O)c(CNCCCl)c1
T/C (dose: 25.0 mg/kg/injection, schedule: Q04DX002 (ip), vehicle: DMSO): 95 % of control
T/C (dose: 50.0 mg/kg/injection, schedule: Q04DX002 (ip), vehicle: DMSO): 98 % of control
T/C (dose: 100.0 mg/kg/injection, schedule: Q04DX002 (ip), vehicle: DMSO): 89 % of control

COc1cc(CC(O)c2cc(OC)c(OC)c(OC)c2)cc(OC)c1OC (stereo not drawn)
T/C (dose: 31.25 mg/kg/injection, schedule: Q01DX009 (ip), vehicle: saline + Tween-80 + alcohol): 102 % of control
T/C (dose: 62.5 mg/kg/injection, schedule: Q01DX009 (ip), vehicle: saline + Tween-80 + alcohol): 102 % of control
T/C (dose: 125.0 mg/kg/injection, schedule: Q01DX009 (ip), vehicle: saline + Tween-80 + alcohol): 100 % of control
T/C (dose: 250.0 mg/kg/injection, schedule: Q01DX009 (ip), vehicle: saline + Tween-80 + alcohol): 91 % of control

NC(N)=N/N=C1/c2ccccc2/C(=N/N=C(N)N)C1[N+](=O)[O-]
T/C (dose: 25.0 mg/kg/injection, schedule: Q01DX001 (ip), vehicle: Klucel (hydroxypropylcellulose) (HPC)): 112 % of control
T/C [1]: 114 % of control
T/C [2]: 114 % of control
T/C [3]: 113 % of control
T/C (dose: 400.0 mg/kg/injection, schedule: Q01DX001 (ip), vehicle: Klucel (hydroxypropylcellulose) (HPC)): 111 % of control

COC(=O)/C=C(\C)NC1CC(OC2C[C@](O)(C(C)=O)Cc3c(O)c4c(c(O)c32)C(=O)c2c(OC)cccc2C4=O)OC(C)C1O (stereo partly drawn)
T/C (dose: 6.25 mg/kg/injection, schedule: Q04DX003 (ip), vehicle: saline with Tween-80): 105 % of control
T/C (dose: 12.5 mg/kg/injection, schedule: Q04DX003 (ip), vehicle: saline with Tween-80): 110 % of control and 113 % of control
T/C (dose: 50.0 mg/kg/injection, schedule: Q04DX003 (ip), vehicle: saline with Tween-80): 96 % of control

CCCC/C([O-])=C1/C(=O)N(c2ccccc2)N=C1C.CCCC/C([O-])=C1/C(=O)N(c2ccccc2)N=C1C.[Cu+2]
T/C (dose: 60.0 mg/kg/injection, schedule: Q01DX005 (ip), vehicle: saline with Tween-80): 90 % of control
T/C (dose: 120.0 mg/kg/injection, schedule: Q01DX005 (ip), vehicle: saline with Tween-80): 97 % of control
T/C (dose: 240.0 mg/kg/injection, schedule: Q01DX005 (ip), vehicle: saline with Tween-80): 96 % of control

O=C1C(=C(C(F)(F)F)C(F)(F)F)C2CCC1C2 (stereo not drawn)
T/C (dose: 3.13 mg/kg/injection, schedule: Q01DX009 (ip), vehicle: saline with Tween-80): 100 % of control
T/C (dose: 6.25 mg/kg/injection, schedule: Q01DX009 (ip), vehicle: saline with Tween-80): 110 % of control
T/C (dose: 12.5 mg/kg/injection, schedule: Q01DX009 (ip), vehicle: saline with Tween-80): 100 % of control

CN(C)Cc1nsc(N(C)C)n1
T/C [7]: 100 % of control
T/C [8]: 97 % of control
T/C [9]: 93 % of control

O=C1CC[C@@H]2N1CC2(O)c1ccccc1 (mixture of isomers)
T/C [7]: 96 % of control
T/C [8]: 93 % of control
T/C [9]: 93 % of control

COc1ccc(/C=C/c2nc(Nc3ccc(S(N)(=O)=O)cc3)c3ccccc3n2)cc1
T/C (dose: 50.0 mg/kg/injection, schedule: Q01DX009 (ip), vehicle: acetone): 102 % of control
T/C (dose: 100.0 mg/kg/injection, schedule: Q01DX009 (ip), vehicle: acetone): 99 % of control
T/C (dose: 200.0 mg/kg/injection, schedule: Q01DX009 (ip), vehicle: acetone): 96 % of control

Cc1cc(=Nc2ccc3c(c2)c(N)cc(C)[n+]3C)nc(N)n1C
T/C [4]: 107 % of control
T/C [5]: 107 % of control
T/C [6]: 104 % of control

CCCCN1CSC(=S)N(Cc2ccccc2)C1
T/C (dose: 50.0 mg/kg/injection, schedule: Q01DX009 (ip), vehicle: other): 115 % of control
T/C (dose: 100.0 mg/kg/injection, schedule: Q01DX009 (ip), vehicle: other): 108 % of control
T/C (dose: 200.0 mg/kg/injection, schedule: Q01DX009 (ip), vehicle: other): 92 % of control

CC(C)(C)N=C(CCNC1CCCCC1)Nc1ccccc1Cl
T/C [10]: 100 % of control
T/C [11]: 109 % of control
T/C [12]: 101 % of control

O=C1NC(=Nc2ccccc2)N(c2ccccc2)C1=Nc1ccccc1
T/C [10]: 88 % of control
T/C [11]: 91 % of control
T/C [12]: 86 % of control

CCCCCCCCCCCCN(CCCCCCCCCCCC)CC(O)c1cc2c(c3ccccc13)CCCC2 (stereo not drawn)
T/C [13]: 101 % of control
T/C [14]: 97 % of control
T/C [15]: 101 % of control

CCN(CC)CCn1cnc2c(=S)[nH]c(=S)[nH]c21
T/C (dose: 100.0 mg/kg/injection, schedule: Q01DX001 (ip), vehicle: saline with Tween-80): 95 % of control
T/C (dose: 200.0 mg/kg/injection, schedule: Q01DX001 (ip), vehicle: saline with Tween-80): 97 % of control
T/C (dose: 400.0 mg/kg/injection, schedule: Q01DX001 (ip), vehicle: saline with Tween-80): 97 % of control

CCOC(=O)C1=C(CC)NN=C(C)C1
T/C [13]: 105 % of control
T/C [14]: 103 % of control
T/C [15]: 100 % of control

CC(C)(C)N1C(=O)C(c2ccccc2)(c2ccccc2)C1/C=C/c1ccccc1 (stereo not drawn)
T/C [7]: 93 % of control
T/C [8]: 90 % of control
